From patent publication US20250002507A1, “7,8-DIHYDRO-5H-1,6-NAPHTHYRIDINE DERIVATIVES AS POSITIVE ALLOSTERIC MODULATORS OF THE MUSCARINIC ACETYLCHOLINE RECEPTOR M4 FOR TREATING NEUROLOGICAL AND PSYCHIATRIC DISORDERS” (Vanderbilt University, priority 2021, published 2025) come the findings set out here.

The target in the experiment is T1, Human M4 (Homo sapiens, UniProt P08173).
T1 construct: expressed in transfected cells
T1 sequence (P08173 1-479): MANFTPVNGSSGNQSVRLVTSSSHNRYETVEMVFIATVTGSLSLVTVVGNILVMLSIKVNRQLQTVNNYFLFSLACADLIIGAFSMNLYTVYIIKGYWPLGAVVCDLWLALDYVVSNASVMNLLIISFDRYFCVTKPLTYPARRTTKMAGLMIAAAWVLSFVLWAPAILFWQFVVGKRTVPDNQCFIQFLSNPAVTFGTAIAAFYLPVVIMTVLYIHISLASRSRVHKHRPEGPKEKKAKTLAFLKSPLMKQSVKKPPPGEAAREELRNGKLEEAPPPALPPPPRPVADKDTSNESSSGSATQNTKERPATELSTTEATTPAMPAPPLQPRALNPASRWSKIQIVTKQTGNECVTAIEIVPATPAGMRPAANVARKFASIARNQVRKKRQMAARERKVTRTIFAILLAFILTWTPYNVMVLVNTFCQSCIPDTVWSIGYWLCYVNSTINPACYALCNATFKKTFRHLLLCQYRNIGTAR
Briefly: mAChR M4 cell-based functional assay (calcium flux, potentiation of EC20 acetylcholine response), hM4-Gqi5 CHO-K1 cells. The conditions noted are these: Table 4; for Emax at 30 µM: CHO-K1, Human M4, % ACh maximum at 30 μM, read-out: Emax (% ACh maximum at 30 μM); for EC50: potentiation of EC20 acetylcholine response, calcium flux, CHO-K1 cells, read-out: Human M4 EC50. The method in brief:
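CHO-K1 cells stably expressing human M4 with chimeric Gqi5, loaded with Fluo-4 AM 50 min at 37 °C; calcium flux read by FDSS. 11-point 1:3 compound curves added, then EC20 acetylcholine at 144 s; potentiation of the EC20 response fitted by four-parameter logistic to give EC50 and Emax.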
(Calcium flux is commonly read through the fluorescence of an indicator in the cells.)

For `Cc1c(N2CCc3ncc(N4CCOC[C@@H]4C)cc3C2)nn2c(C(F)(F)F)nnc2c1C` [Compound 315, (S)-4-(6-(7,8-dimethyl-3-(trifluoromethyl)-[1,2,4]triazolo[4,3-b]pyridazin-6-yl)-5,6,7,8-tetrahydro-1,6-naphthyridin-3-yl)-3-methylmorpholine], the Emax at 30 µM was 85% and the EC50 came out at 1900 nM.

Consider `Cc1c(N2CCc3ncc(N4CC5CC4CO5)cc3C2)nn2c(C(F)(F)F)nnc2c1C` (stereo not shown) [Compound 316, 5-(6-(7,8-dimethyl-3-(trifluoromethyl)-[1,2,4]triazolo[4,3-b]pyridazin-6-yl)-5,6,7,8-tetrahydro-1,6-naphthyridin-3-yl)-2-oxa-5-azabicyclo[2.2.1]heptane], for which the Emax at 30 µM came out at 78% and the EC50 worked out at 573 nM.

Turning to `COC1CCN(c2cnc3c(c2)CN(c2nn4c(C(F)(F)F)nnc4c(C)c2C)CC3)CC1` [Compound 317, 6-(7,8-dimethyl-3-(trifluoromethyl)-[1,2,4]triazolo[4,3-b]pyridazin-6-yl)-3-(4-methoxypiperidin-1-yl)-5,6,7,8-tetrahydro-1,6-naphthyridine], the Emax at 30 µM was 84% and the 50% effective concentration (EC50) was found to be 1400 nM.

On to `Cc1c(N2CCc3ncc(N4C[C@@H](C)O[C@@H](C)C4)cc3C2)nn2c(C(F)(F)F)nnc2c1C` [Compound 318, (2R,6S)-4-(6-(7,8-dimethyl-3-(trifluoromethyl)-[1,2,4]triazolo[4,3-b]pyridazin-6-yl)-5,6,7,8-tetrahydro-1,6-naphthyridin-3-yl)-2,6-dimethylmorpholine], for which the Emax at 30 µM turned out to be 80% and the EC50 worked out at 2150 nM.

Regarding `Cc1cc2nnc(C(F)(F)F)n2nc1N1CCc2ncc(C(F)(F)F)cc2C1` [Compound 319, 6-(7-methyl-3-(trifluoromethyl)-[1,2,4]triazolo[4,3-b]pyridazin-6-yl)-3-(trifluoromethyl)-5,6,7,8-tetrahydro-1,6-naphthyridine], the Emax at 30 µM stood at 96% and the EC50 turned out to be 794 nM.

For the compound `Cc1cc2n(n1)CCCN2c1cnc2c(c1)CN(c1nn3c(C(F)(F)F)nnc3c(C)c1C)CC2` [Compound 320, 6-(7,8-dimethyl-3-(trifluoromethyl)-[1,2,4]triazolo[4,3-b]pyridazin-6-yl)-3-(2-methyl-6,7-dihydropyrazolo[1,5-a]pyrimidin-4(5H)-yl)-5,6,7,8-tetrahydro-1,6-naphthyridine], the Emax at 30 µM turned out to be 76% and the EC50 turned out to be 121 nM.

`Cc1c(N2CCc3ncc(C(F)(F)F)cc3C2)nn2c(C(F)(F)F)nnc2c1C` [Compound 321, 6-(7,8-dimethyl-3-(trifluoromethyl)-[1,2,4]triazolo[4,3-b]pyridazin-6-yl)-3-(trifluoromethyl)-5,6,7,8-tetrahydro-1,6-naphthyridine]: the Emax at 30 µM was 72% and the EC50 was found to be 270 nM.

With `Cc1c(N2CCc3ncc(N4CCO[C@H](c5ccccc5)C4)cc3C2)nn2c(C(F)(F)F)nnc2c1C` [Compound 322, (R)-4-(6-(7,8-dimethyl-3-(trifluoromethyl)-[1,2,4]triazolo[4,3-b]pyridazin-6-yl)-5,6,7,8-tetrahydro-1,6-naphthyridin-3-yl)-2-phenylmorpholine], the maximum response (Emax) at 30 µM came to 96% and the concentration for a half-maximal effect (EC50) was 3140 nM.

Take `Cc1c(N2CCc3ncc(N4CCO[C@@H](c5ccccc5)C4)cc3C2)nn2c(C(F)(F)F)nnc2c1C` [Compound 323, (S)-4-(6-(7,8-dimethyl-3-(trifluoromethyl)-[1,2,4]triazolo[4,3-b]pyridazin-6-yl)-5,6,7,8-tetrahydro-1,6-naphthyridin-3-yl)-2-phenylmorpholine]: the Emax at 30 µM is 46% and the EC50 was 8910 nM.

Regarding `Cc1cc2nnc(C(F)(F)F)n2nc1N1CCc2ncc(N3CCOc4ncccc43)cc2C1` [Compound 324, 1-(6-(7-methyl-3-(trifluoromethyl)-[1,2,4]triazolo[4,3-b]pyridazin-6-yl)-5,6,7,8-tetrahydro-1,6-naphthyridin-3-yl)-2,3-dihydro-1H-pyrido[2,3-b][1,4]oxazine], the Emax at 30 µM stood at 111% and the EC50 was 153 nM.

As for `Cc1cc2nnc(C(F)(F)F)n2nc1N1CCc2ncc(N3CCCn4nccc43)cc2C1` [Compound 325, 3-(6,7-dihydropyrazolo[1,5-a]pyrimidin-4(5H)-yl)-6-(7-methyl-3-(trifluoromethyl)-[1,2,4]triazolo[4,3-b]pyridazin-6-yl)-5,6,7,8-tetrahydro-1,6-naphthyridine], the Emax at 30 µM was determined as 116% and the EC50 came out at 50 nM.

`Cc1cc2nnc(C(F)(F)F)n2nc1N1CCc2ncc(N3CCOC(c4ccccn4)C3)cc2C1` (stereo not shown) [Compound 326, 4-(6-(7-methyl-3-(trifluoromethyl)-[1,2,4]triazolo[4,3-b]pyridazin-6-yl)-5,6,7,8-tetrahydro-1,6-naphthyridin-3-yl)-2-(pyridin-2-yl)morpholine]: the Emax at 30 µM was determined as 62% and the EC50 was 2080 nM.

For the compound `Cc1c(N2CCc3ncc(N4CCOC(c5ccccn5)C4)cc3C2)nn2c(C(F)(F)F)nnc2c1C` (stereo not shown) [Compound 327, 4-(6-(7,8-dimethyl-3-(trifluoromethyl)-[1,2,4]triazolo[4,3-b]pyridazin-6-yl)-5,6,7,8-tetrahydro-1,6-naphthyridin-3-yl)-2-(pyridin-2-yl)morpholine], the Emax at 30 µM turned out to be 68% and the EC50 was determined as 1310 nM.

In the case of `Cc1c(N2CCc3ncc(N4CCOC(c5cccnc5)C4)cc3C2)nn2c(C(F)(F)F)nnc2c1C` (stereo not shown) [Compound 328, 4-(6-(7,8-dimethyl-3-(trifluoromethyl)-[1,2,4]triazolo[4,3-b]pyridazin-6-yl)-5,6,7,8-tetrahydro-1,6-naphthyridin-3-yl)-2-(pyridin-3-yl)morpholine], the Emax at 30 µM stood at 76% and the EC50 was determined as 623 nM.

On to `Cc1cc2nnc(C(F)(F)F)n2nc1N1CCc2ncc(N3CCOC(c4cccnc4)C3)cc2C1` (stereo not shown) [Compound 329, 4-(6-(7-methyl-3-(trifluoromethyl)-[1,2,4]triazolo[4,3-b]pyridazin-6-yl)-5,6,7,8-tetrahydro-1,6-naphthyridin-3-yl)-2-(pyridin-3-yl)morpholine], for which the Emax at 30 µM came out at 80% and the concentration giving a half-maximal response (EC50) was found to be 1490 nM.

In the case of `Cc1cc2nncn2nc1N1Cc2cc(N3CCOCC3)cnc2C(C)C1` (stereo not shown) [Compound 330, 4-(8-methyl-6-(7-methyl-[1,2,4]triazolo[4,3-b]pyridazin-6-yl)-5,6,7,8-tetrahydro-1,6-naphthyridin-3-yl)morpholine], the Emax at 30 µM is 83% and the EC50 was found to be 2150 nM.

With `Cc1c(N2Cc3cc(N4CCOCC4)cnc3C(C)C2)nn2cnnc2c1C` (stereo not shown) [Compound 331, 4-(6-(7,8-dimethyl-[1,2,4]triazolo[4,3-b]pyridazin-6-yl)-8-methyl-5,6,7,8-tetrahydro-1,6-naphthyridin-3-yl)morpholine], the Emax at 30 µM came to 94% and the 50% effective concentration (EC50) was 700 nM.

Turning to `Cc1cc2nncn2nc1N1CCc2ncc(N3CCN(C)C(=O)C3)cc2C1` [Compound 332, 1-methyl-4-(6-(7-methyl-[1,2,4]triazolo[4,3-b]pyridazin-6-yl)-5,6,7,8-tetrahydro-1,6-naphthyridin-3-yl)piperazin-2-one], the Emax at 30 µM turned out to be 71% and the EC50 was 2590 nM.

As for `Cc1c(N2CCc3ncc(N4CCN(C)C(=O)C4)cc3C2)nn2cnnc2c1C` [Compound 333, 4-(6-(7,8-dimethyl-[1,2,4]triazolo[4,3-b]pyridazin-6-yl)-5,6,7,8-tetrahydro-1,6-naphthyridin-3-yl)-1-methylpiperazin-2-one], the Emax at 30 µM amounted to 52% and the EC50 is 1340 nM.

On to `Cc1cc2nncn2nc1N1CCc2ncc(CC(F)(F)F)cc2C1` [Compound 334, 6-(7-methyl-[1,2,4]triazolo[4,3-b]pyridazin-6-yl)-3-(2,2,2-trifluoroethyl)-5,6,7,8-tetrahydro-1,6-naphthyridine], for which the Emax at 30 µM came out at 74% and the EC50 turned out to be 234 nM.

For the compound `Cc1cc2nncn2nc1N1CCc2ncc(C(C)(O)C(F)(F)F)cc2C1` (stereo not shown) [Compound 335, 1,1,1-trifluoro-2-(6-(7-methyl-[1,2,4]triazolo[4,3-b]pyridazin-6-yl)-5,6,7,8-tetrahydro-1,6-naphthyridin-3-yl)propan-2-ol], the Emax at 30 µM turned out to be 77% and the EC50 was determined as 1700 nM.

In the case of `CCOC(=O)c1c(C)nc2cc(C)c(N3CCc4ncc(N5CCCn6nccc65)cc4C3)nn12` [Compound 336, ethyl 6-(3-(6,7-dihydropyrazolo[1,5-a]pyrimidin-4(5H)-yl)-7,8-dihydro-1,6-naphthyridin-6(5H)-yl)-2,7-dimethylimidazo[1,2-b]pyridazine-3-carboxylate], the Emax at 30 µM came out at 72% and the EC50 was 359 nM.

On to `CCOC(=O)c1c(C)nc2cc(C)c(N3CCc4ncc(C(F)(F)F)cc4C3)nn12` [Compound 337, ethyl 2,7-dimethyl-6-(3-(trifluoromethyl)-7,8-dihydro-1,6-naphthyridin-6(5H)-yl)imidazo[1,2-b]pyridazine-3-carboxylate], for which the Emax at 30 µM stood at 61% and the EC50 was determined as 1610 nM.

Broadly, the Emax is the greatest response seen or fitted, relative to the assay's reference. The term EC50 denotes the midpoint of the concentration-response curve.
